Reference: US20250255809A1, “OPHTHALMIC PHARMACEUTICAL COMPOSITIONS OF ROFLUMILAST” (Iolyx Therapeutics, Inc., priority 2021, published 2025)

How the values were obtained:
[1] = as reported from the API manufacturer; cited from earlier work
[2] = Impact of dry heat sterilization on particle size of bulk roflumilast API; assay type: physicochemical; details: bulk API dried at 137° C. for 20 hours
Procedure: The impact of dry heat sterilization on roflumilast was assessed. Bulk API of roflumilast was dried at 137° C. for 20 hours. The particle size of the roflumilast was measured. FIG. 14 provides a particle size distribution plot for the bulk API after dry heat sterilization.

O=C(Nc1c(Cl)cncc1Cl)c1ccc(OC(F)F)c(OCC2CC2)c1 [Roflumilast, N-(3,5-dichloropyrid-4-yl)-3-cyclopropylmethoxy-4-difluoromethoxybenzamide]
D90 of the API [1]: approximately 10 μm | impact of dry heat sterilization on particle size distribution [2]: does not significantly impact the particle size distribution
